Assays:
Assay in all cases: relative viability (nuclei count vs DMSO), 5 days (fraction); higher = more cells survive
ABC-1 = system: ABC-1
In short: (§1)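 Lung cancer cell lines were pin-tool dosed in 1536-well plates on the day after seeding, with either a lone drug or a fixed anchor-drug dose plus five library-drug doses (not always all listed) in √10 steps. Nuclei were counted on 4× images after 5 days. Relative viability is the ratio of treated-well to vehicle-well nuclei counts, with each value a median of duplicate plates.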

CAL-12T = system: CAL-12T
In short: as §1

COR-L23 = system: COR-L23
In short: as §1

EMC-BAC-2 = system: EMC-BAC-2
In short: as §1

HARA = system: HARA
In short: as §1

HCC-366 = system: HCC-366
In short: as §1

HOP-62 = system: HOP-62
In short: as §1

LK-2 = system: LK-2
In short: as §1

NCI-H1437 = system: NCI-H1437
In short: as §1

NCI-H1563 = system: NCI-H1563
In short: as §1

NCI-H1650 = system: NCI-H1650
In short: as §1

NCI-H1651 = system: NCI-H1651
In short: as §1

NCI-H1734 = system: NCI-H1734
In short: as §1

NCI-H1755 = system: NCI-H1755
In short: as §1

NCI-H2347 = system: NCI-H2347
In short: as §1

NCI-H3122 = system: NCI-H3122
In short: as §1

NCI-H441 = system: NCI-H441
In short: as §1

NCI-H596 = system: NCI-H596
In short: as §1

NCI-H727 = system: NCI-H727
In short: as §1

PC-3 [JPC-3] = system: PC-3 [JPC-3]
In short: as §1

RERF-LC-KJ = system: RERF-LC-KJ
In short: as §1

SK-LU-1 = system: SK-LU-1
In short: as §1

UMC-11 = system: UMC-11
In short: as §1

Question: For CN1CCN(CCOc2cc(OC3CCOCC3)c3c(Nc4c(Cl)ccc5c4OCO5)ncnc3c2)CC1 [Saracatinib] + CS(=O)(=O)N1CCN(Cc2cc3nc(-c4cccc5[nH]ncc45)nc(N4CCOCC4)c3s2)CC1 [Pictilisib] (partner 1 µM), which relative viability (ABC-1; first compound 0.02 µM) is on record?
Answer: 0.695

Question: What about the relative viability (ABC-1; first compound 0.2 µM) of the same molecule?
Answer: 0.938

Question: What about the relative viability (ABC-1; first compound 0.6325 µM) of the same molecule?
Answer: 0.85

Question: And the relative viability (ABC-1; first compound 2 µM)?
Answer: 0.822

Question: What about the relative viability (CAL-12T; first compound 0.02 µM) of the same molecule?
Answer: 0.428

Question: And the relative viability (CAL-12T; first compound 0.2 µM)?
Answer: 0.399

Question: And the relative viability (CAL-12T; first compound 0.6325 µM)?
Answer: 0.491

Question: What about the relative viability (CAL-12T; first compound 2 µM) of the same molecule?
Answer: 0.255

Question: What about the relative viability (COR-L23; first compound 0.02 µM) of the same molecule?
Answer: 0.721

Question: What about the relative viability (COR-L23; first compound 0.2 µM) of the same molecule?
Answer: 0.568

Question: What about the relative viability (COR-L23; first compound 0.6325 µM) of the same molecule?
Answer: 0.75

Question: What about the relative viability (COR-L23; first compound 2 µM) of the same molecule?
Answer: 0.675

Question: What about the relative viability (EMC-BAC-2; first compound 0.02 µM) of the same molecule?
Answer: 0.546

Question: And the relative viability (EMC-BAC-2; first compound 0.2 µM)?
Answer: 0.507

Question: And the relative viability (EMC-BAC-2; first compound 0.6325 µM)?
Answer: 0.497

Question: What about the relative viability (EMC-BAC-2; first compound 2 µM) of the same molecule?
Answer: 0.34

Question: What about the relative viability (HARA; first compound 0.02 µM) of the same molecule?
Answer: 0.37

Question: And the relative viability (HARA; first compound 0.6325 µM)?
Answer: 0.374

Question: What about the relative viability (HARA; first compound 2 µM) of the same molecule?
Answer: 0.118

Question: And the relative viability (HCC-366; first compound 0.02 µM)?
Answer: 0.132

Question: What about the relative viability (HCC-366; first compound 0.2 µM) of the same molecule?
Answer: 0.151

Question: And the relative viability (HCC-366; first compound 0.6325 µM)?
Answer: 0.107

Question: What about the relative viability (HCC-366; first compound 2 µM) of the same molecule?
Answer: 0.103

Question: And the relative viability (HOP-62; first compound 0.02 µM)?
Answer: 0.548

Question: What about the relative viability (HOP-62; first compound 0.2 µM) of the same molecule?
Answer: 0.685

Question: And the relative viability (HOP-62; first compound 0.6325 µM)?
Answer: 1.05

Question: What about the relative viability (HOP-62; first compound 2 µM) of the same molecule?
Answer: 0.605

Question: And the relative viability (LK-2; first compound 0.02 µM)?
Answer: 0.563

Question: And the relative viability (LK-2; first compound 0.2 µM)?
Answer: 0.316

Question: And the relative viability (LK-2; first compound 0.6325 µM)?
Answer: 0.413

Question: And the relative viability (LK-2; first compound 2 µM)?
Answer: 0.302

Question: And the relative viability (NCI-H1437; first compound 0.02 µM)?
Answer: 0.416

Question: What about the relative viability (NCI-H1437; first compound 0.2 µM) of the same molecule?
Answer: 0.418

Question: What about the relative viability (NCI-H1437; first compound 0.6325 µM) of the same molecule?
Answer: 0.454

Question: What about the relative viability (NCI-H1437; first compound 2 µM) of the same molecule?
Answer: 0.393

Question: What about the relative viability (NCI-H1563; first compound 0.02 µM) of the same molecule?
Answer: 0.618

Question: What about the relative viability (NCI-H1563; first compound 0.2 µM) of the same molecule?
Answer: 0.609

Question: What about the relative viability (NCI-H1563; first compound 0.6325 µM) of the same molecule?
Answer: 0.63

Question: And the relative viability (NCI-H1563; first compound 2 µM)?
Answer: 0.606

Question: What about the relative viability (NCI-H1650; first compound 0.02 µM) of the same molecule?
Answer: 0.626

Question: What about the relative viability (NCI-H1650; first compound 0.2 µM) of the same molecule?
Answer: 0.468

Question: And the relative viability (NCI-H1650; first compound 0.6325 µM)?
Answer: 0.377

Question: And the relative viability (NCI-H1650; first compound 2 µM)?
Answer: 0.314

Question: And the relative viability (NCI-H1651; first compound 0.02 µM)?
Answer: 0.507

Question: And the relative viability (NCI-H1651; first compound 0.2 µM)?
Answer: 0.499

Question: What about the relative viability (NCI-H1651; first compound 0.6325 µM) of the same molecule?
Answer: 0.563

Question: What about the relative viability (NCI-H1651; first compound 2 µM) of the same molecule?
Answer: 0.5

Question: What about the relative viability (NCI-H1734; first compound 0.02 µM) of the same molecule?
Answer: 0.475

Question: What about the relative viability (NCI-H1734; first compound 0.6325 µM) of the same molecule?
Answer: 0.435

Question: And the relative viability (NCI-H1734; first compound 2 µM)?
Answer: 0.387

Question: And the relative viability (NCI-H1755; first compound 0.02 µM)?
Answer: 0.424

Question: And the relative viability (NCI-H1755; first compound 0.2 µM)?
Answer: 0.408

Question: What about the relative viability (NCI-H1755; first compound 0.6325 µM) of the same molecule?
Answer: 0.431

Question: And the relative viability (NCI-H1755; first compound 2 µM)?
Answer: 0.26

Question: What about the relative viability (NCI-H2347; first compound 0.02 µM) of the same molecule?
Answer: 0.654

Question: And the relative viability (NCI-H2347; first compound 0.2 µM)?
Answer: 0.6

Question: What about the relative viability (NCI-H2347; first compound 0.6325 µM) of the same molecule?
Answer: 0.772

Question: And the relative viability (NCI-H2347; first compound 2 µM)?
Answer: 0.527

Question: And the relative viability (NCI-H3122; first compound 0.02 µM)?
Answer: 0.573

Question: And the relative viability (NCI-H3122; first compound 0.6325 µM)?
Answer: 0.586

Question: What about the relative viability (NCI-H3122; first compound 2 µM) of the same molecule?
Answer: 0.454

Question: And the relative viability (NCI-H441; first compound 0.02 µM)?
Answer: 0.461

Question: And the relative viability (NCI-H441; first compound 0.2 µM)?
Answer: 0.406

Question: And the relative viability (NCI-H441; first compound 0.6325 µM)?
Answer: 0.501

Question: And the relative viability (NCI-H441; first compound 2 µM)?
Answer: 0.329

Question: What about the relative viability (NCI-H596; first compound 0.02 µM) of the same molecule?
Answer: 0.218

Question: And the relative viability (NCI-H596; first compound 0.2 µM)?
Answer: 0.429

Question: What about the relative viability (NCI-H596; first compound 0.6325 µM) of the same molecule?
Answer: 0.435

Question: What about the relative viability (NCI-H596; first compound 2 µM) of the same molecule?
Answer: 0.319

Question: What about the relative viability (NCI-H727; first compound 0.02 µM) of the same molecule?
Answer: 0.295

Question: What about the relative viability (NCI-H727; first compound 0.2 µM) of the same molecule?
Answer: 0.423

Question: And the relative viability (NCI-H727; first compound 0.6325 µM)?
Answer: 0.354

Question: What about the relative viability (NCI-H727; first compound 2 µM) of the same molecule?
Answer: 0.407

Question: What about the relative viability (PC-3 [JPC-3]; first compound 0.02 µM) of the same molecule?
Answer: 0.782

Question: And the relative viability (PC-3 [JPC-3]; first compound 0.2 µM)?
Answer: 0.613

Question: And the relative viability (PC-3 [JPC-3]; first compound 0.6325 µM)?
Answer: 0.475

Question: What about the relative viability (PC-3 [JPC-3]; first compound 2 µM) of the same molecule?
Answer: 0.395

Question: And the relative viability (RERF-LC-KJ; first compound 0.02 µM)?
Answer: 0.503

Question: And the relative viability (RERF-LC-KJ; first compound 0.2 µM)?
Answer: 0.521

Question: What about the relative viability (RERF-LC-KJ; first compound 0.6325 µM) of the same molecule?
Answer: 0.604

Question: And the relative viability (RERF-LC-KJ; first compound 2 µM)?
Answer: 0.362

Question: What about the relative viability (SK-LU-1; first compound 0.02 µM) of the same molecule?
Answer: 0.443

Question: And the relative viability (SK-LU-1; first compound 0.2 µM)?
Answer: 0.419

Question: And the relative viability (SK-LU-1; first compound 0.6325 µM)?
Answer: 0.388

Question: And the relative viability (SK-LU-1; first compound 2 µM)?
Answer: 0.226

Question: And the relative viability (UMC-11; first compound 0.02 µM)?
Answer: 0.691

Question: What about the relative viability (UMC-11; first compound 0.6325 µM) of the same molecule?
Answer: 0.836

Question: And the relative viability (UMC-11; first compound 2 µM)?
Answer: 0.679

Reference: the supplement of paper PMC10307832
